What was measured:
Cavia porcellus [1] = assay: Amount of ouabain needed for production of ventricular arrhythmias that causes death in guinea pig by cardiac arrest at a dose of 1 mg/kg iv given 5 min prior; format: functional, Cardiac ventricle
Cavia porcellus [2] = assay: Amount of ouabain needed for production of ventricular extra-systoles at a dose of 1 mg/kg (iv given 5 min prior) in guinea pig; format: functional, Cardiac ventricle
Cavia porcellus [3] = assay: Amount of ouabain needed for production of ventricular fibrillation at a dose of 1 mg/kg (iv given 5 min prior) in guinea pig; format: functional, Cardiac ventricle
[4] = Acute toxicity determined after intravenal administration in mice; format: organism-based; settings: mouse, in vivo, iv
Rattus norvegicus [5] = assay: Effective dose against aconitine-induced arrhythmia after intravenal administration in anesthetized rats; format: functional
Rattus norvegicus [6] = species: Rattus norvegicus; assay: Relative potency with reference to quinidine; format: functional
Rattus norvegicus [7] = assay: Tested for incidence of arrhythmias in rats after a intravenal administration of 2 mg/kg expressed as no. of positive cases out of no. of tested cases (10); format: functional
Rattus norvegicus [8] = assay: Tested for incidence of arrhythmias in rats after a intravenal administration of 1 mg/kg expressed as no. of positive cases out of no. of tested cases (10); format: functional
[9] = Acute toxicity in secondary evaluation when administered intravenously (iv) against aconitine-induced arrhythmias in anesthetized rats..parenthesis indicates 95%CL; format: organism-based; settings: rat, in vivo
Rattus norvegicus [10] = assay: Incidence of arrhythmias in rats after a intravenal administration at 4 mg/kg, expressed as no. of positive cases out of no. of tested cases (10); format: functional
Rattus norvegicus [11] = assay: (§1) Acute toxicity in secondary evaluation when administered intravenously (iv) against aconitine-induced arrhythmias in anesthetized rats; format: functional, organism-based
Rattus norvegicus [12] = assay: (§2) Acute toxicity in secondary evaluation when administered intravenously (iv) against aconitine-induced arrhythmias in anesthetized rats.; format: functional, organism-based
Rattus norvegicus [13] = assay: Acute toxicity in secondary evaluation when administered intravenously (iv) against aconitine-induced arrhythmias in anesthetized rats. Relative potency with respect to quinidine.; format: functional, organism-based
Rattus norvegicus [14] = assay: Tested for incidence of arrhythmias in rats after a intravenal administration of 0.5 mg/kg expressed as no. of positive cases out of no. of tested cases (10); format: functional
Cavia porcellus [15] = assay: Amount of ouabain needed for production of ventricular arrhythmias that causes death in guinea pig by cardiac arrest at a dose of 4 mg/kg iv given 5 min prior; format: functional, Cardiac ventricle
Cavia porcellus [16] = assay: Amount of ouabain needed for production of ventricular extra-systoles at a dose of 4 mg/kg (iv given 5 min prior) in guinea pig; format: functional, Cardiac ventricle
Cavia porcellus [17] = assay: Amount of ouabain needed for production of ventricular fibrillation at a dose of 4 mg/kg (iv given 5 min prior) in guinea pig; format: functional, Cardiac ventricle
Rattus norvegicus [18] = assay: Tested for incidence of arrhythmias in rats after a intravenal administration of 4 mg/kg expressed as no. of positive cases out of no. of tested cases (10); format: functional
Cavia porcellus [19] = assay: Amount of ouabain needed for production of ventricular extra-systoles at a dose of 2 mg/kg (iv given 5 min prior) in guinea pig; format: functional, Cardiac ventricle
Cavia porcellus [20] = assay: Amount of ouabain needed for production of ventricular fibrillation at a dose of 2 mg/kg (iv given 5 min prior) in guinea pig; format: functional, Cardiac ventricle
Cavia porcellus [21] = assay: Amount of ouabain needed for production of ventricular arrhythmias that causes death in guinea pig by cardiac arrest at a dose of 2 mg/kg iv given 5 min prior; format: functional, Cardiac ventricle
[22] = as §1; format: organism-based; settings: rat, in vivo
[23] = as §2; format: organism-based; settings: rat, in vivo

C=CCOc1ccccc1CNCCCNC(=O)C1=CC(C)(C)NC1(C)C
Average dose (Cavia porcellus [1]): 0.3061 mg/kg | Average dose (Cavia porcellus [2]): 0.2243 mg/kg | Average dose (Cavia porcellus [3]): 0.2802 mg/kg | LD50 [4]: 18 mg/kg | ED150 (Rattus norvegicus [5]): 1.9 mg/kg | Relative potency (Rattus norvegicus [6]): 6.3 | No. of positive cases (Rattus norvegicus [7]): 10

CCN(CC)C(=O)COc1c(CNCCCNC(=O)C2=CC(C)(C)NC2(C)C)cccc1OC
LD50 [4]: 2.1 mg/kg | No. of positive cases (Rattus norvegicus [8]): 1

C=CCc1ccc(OC(C)C(=O)NCCCNC(=O)C2=CC(C)(C)NC2(C)C)c(OC)c1 (stereo not drawn)
LD50 [4]: 7.6 mg/kg | ED150 (Rattus norvegicus [5]): 0.8 mg/kg | Relative potency (Rattus norvegicus [6]): 14.9 | No. of positive cases (Rattus norvegicus [8]): 10

Cc1cccc(C)c1OCC(C)NC(=O)C1=CC(C)(C)N([O])C1(C)C (stereo not drawn)
LD50 [9]: 54 mg/kg | No. of positive cases (Rattus norvegicus [10]): 0

Cc1cccc(C)c1NC(=O)CNCCCNC(=O)C1=CC(C)(C)NC1(C)C
LD50 [4]: 7.4 mg/kg | ED150 (Rattus norvegicus [5]): 0.37 mg/kg | Relative potency (Rattus norvegicus [6]): 32.2 | No. of positive cases (Rattus norvegicus [8]): 10

Cc1cccc(C)c1NC(=O)C1=CC(C)(C)NC1(C)C
LD50 [4]: 6 mg/kg | ED150 (Rattus norvegicus [5]): 2.1 mg/kg | Relative potency (Rattus norvegicus [6]): 5.7 | No. of positive cases (Rattus norvegicus [8]): 7

Cc1cccc(C)c1OCC(C)NC(=O)C1CC(C)(C)N([O])C1(C)C (stereo not drawn)
ED150 (Rattus norvegicus [11]): 9.2 mg/kg | LD50 (Rattus norvegicus [12]): 21 mg/kg | Relative potency (Rattus norvegicus [13]): 1.3 | No. of positive cases (Rattus norvegicus [10]): 6

Cc1cccc(C)c1OCC(C)NC(=O)C1=CC(C)(C)NC1(C)C (stereo not drawn)
Average dose (Cavia porcellus [1]): 0.3476 mg/kg | Average dose (Cavia porcellus [2]): 0.2534 mg/kg | Average dose (Cavia porcellus [3]): 0.3166 mg/kg | LD50 [4]: 11 mg/kg | ED150 (Rattus norvegicus [5]): 0.93 mg/kg | Relative potency (Rattus norvegicus [6]): 12.8 | No. of positive cases (Rattus norvegicus [14]): 10

CCc1nc2ccccc2c(=O)n1CCCNC(=O)C1=CC(C)(C)NC1(C)C
Average dose (Cavia porcellus [1]): 0.316 mg/kg | Average dose (Cavia porcellus [2]): 0.2115 mg/kg | Average dose (Cavia porcellus [3]): 0.2982 mg/kg | Relative potency (Rattus norvegicus [6]): 7 | No. of positive cases (Rattus norvegicus [7]): 10

Cc1cccc(C)c1OCC(C)N (stereo not drawn) [MEXILETINE]
Average dose (Cavia porcellus [15]): 0.2861 mg/kg | Average dose (Cavia porcellus [16]): 0.1855 mg/kg | Average dose (Cavia porcellus [17]): 0.2459 mg/kg

CCCc1ccc(OCC(=O)NCCCNC(=O)C2=CC(C)(C)NC2(C)C)c(OC)c1
LD50 [4]: 12 mg/kg | ED150 (Rattus norvegicus [5]): 2.9 mg/kg | Relative potency (Rattus norvegicus [6]): 4.1 | No. of positive cases (Rattus norvegicus [18]): 10

Cc1cccc(C)c1NC(=O)C(C)NC(=O)C1=CC(C)(C)N([O])C1(C)C (stereo not drawn)
LD50 [9]: 165 mg/kg | No. of positive cases (Rattus norvegicus [10]): 0

C=CCc1ccc(OCC(=O)NCCCNC(=O)C2=CC(C)(C)NC2(C)C)c(OC)c1
Average dose (Cavia porcellus [19]): 0.2266 mg/kg | Average dose (Cavia porcellus [20]): 0.3536 mg/kg | Relative potency (Rattus norvegicus [6]): 8.5 | No. of positive cases (Rattus norvegicus [18]): 10 | Average dose (Cavia porcellus [21]): 0.3988 mg/kg

CC1(C)CC(C(=O)NCCCNCc2ccccc2OCc2ccccc2)C(C)(C)N1 (stereo not drawn)
LD50 [4]: 13 mg/kg | ED150 (Rattus norvegicus [5]): 0.52 mg/kg | Relative potency (Rattus norvegicus [6]): 22.9 | No. of positive cases (Rattus norvegicus [8]): 10

Cc1cccc(C)c1OCC(C)NC(=O)C1CC(C)(C)NC1(C)C (stereo not drawn)
LD50 [4]: 2 mg/kg | ED150 (Rattus norvegicus [5]): 0.39 mg/kg | Relative potency (Rattus norvegicus [6]): 30.5 | No. of positive cases (Rattus norvegicus [14]): 10

Cc1cccc(C)c1NC(=O)CNC(=O)C1=CC(C)(C)N([O])C1(C)C
LD50 [9]: 136 mg/kg | No. of positive cases (Rattus norvegicus [10]): 0

CC1(C)C=C(C(=O)NCCCN2C(=O)c3ccccc3C2=O)C(C)(C)N1[O]
LD50 [22]: 187 mg/kg | No. of positive cases (Rattus norvegicus [10]): 0

CCN(CC)CC(=O)Nc1c(C)cccc1C [LIDOCAINE]
Average dose (Cavia porcellus [15]): 0.2702 mg/kg | Average dose (Cavia porcellus [16]): 0.2001 mg/kg | Average dose (Cavia porcellus [17]): 0.2477 mg/kg

Cc1cccc(C)c1NC(=O)C(C)N (stereo not drawn) [TOCAINIDE]
Average dose (Cavia porcellus [15]): 0.3928 mg/kg | Average dose (Cavia porcellus [16]): 0.236 mg/kg | Average dose (Cavia porcellus [17]): 0.3581 mg/kg

CC.Cc1cccc(C)c1NC(=O)CNC(=O)C1CC(C)(C)N(O)C1(C)C (stereo not drawn)
LD50 [23]: > 200 mg/kg | No. of positive cases (Rattus norvegicus [10]): 0

— ChEMBL document CHEMBL1123299, “New antiarrhythmic agents. 2,2,5,5-Tetramethyl-3-pyrroline-3-carboxamides and 2,2,5,5-tetramethylpyrrolidine-3-carboxamindes” (J Med Chem, 1986)
